Converted amounts (≈) assume the structure as drawn. Read-outs that look alike come from different tables or passages of the source.
What was measured:
[1] = system: Pseudomonas aeruginosa ATCC 27853; assay: MIC determination by broth dilution method (CLSI M07-A9); assay type: cell-based; conditions: Pseudomonas aeruginosa, ATCC27853, P. aeruginosa ATCC 27853, read-out: MIC
Method: (§1) Minimum Inhibitory Concentration (MIC) is the lowest concentration of an antimicrobial agent that prevents visible growth of a microorganism in an agar or broth dilution susceptibility test. MIC of thymoquinone was determined by the broth dilution method against 33 MDR Acinetobacter baumannii strains and standard sensitive culture collection strain of Acinetobacter baumannii and Pseudomonas aeruginosa. The MIC of gentamicin was deter lined by broth dilution method against six MDR Acinetobacter baumannii strains and standard sensitive culture collection strains of Acinetobacter baumannii and Pseudomonas aeruginosa. MIC testing was performed according to the recommendations and guidelines of Clinical Laboratory Standard Institutes (CLSI M07-A9; 2012). Clinical and Laboratory Standards Institute (CLSI), “Methods for Dilution Antimicrobial Susceptibility Tests for Bacteria That Grow Aerobically; Approved Standard,” Document M07-A9, Clinical and Laboratory Standards Institute (CLSI), Wayne, Pa., USA, 2012.
(§2) Twenty-one grams of Mueller-Hinton Broth (MHB) was suspended in 1 Liter distilled water and then boiled to dissolve the powder completely. The medium was sterilized by autoclaving at 121° C. for 15 min. After autoclaving, the medium was cooled to room temperature before use or stored in the fridge until used.
(§3) Thymoquinone was weighed and dissolved in Dimethyl sulfoxide (DMSO) to produce a thymoquinone stock solution with a concentration of 5,120 μg/ml. Gentamicin sulfate was weighed and dissolved in water to produce a gentamicin sulfate stock solution with a concentration of 5,120 μg/ml, equivalent to gentamicin base.
(§4) Dilutions of thymoquinone and gentamicin sulfate stock solutions were prepared volumetrically in the MHB as follows:
(§5) One mL of original stock solution (5,120 μg/ml) was added to 9 ml sterile MHB to give the working first dilution (512 μg/mL). 12 sterile 7 mL PJ tubes were arranged in a rack in a row. Each tube contained one mL sterile MHB. Ten tubes were labeled as 128 μg/mL, 64 μg/mL, 32 μg/mL, 16 μg/mL, 8 μg/mL, 4 μg/mL, 2 μg/mL, 1 μg/mL, 0.5 μg/mL and 0.25 μg/mL. The eleventh and twelfth tubes were labeled as positive and negative control, respectively.
(§6) The working dilution (512 μg/mL) was serially diluted to give two-fold dilutions. One mL of the working dilution (512 μg/mL) was dispensed in the first tube (labeled as 128 μg/mL) to give a concentration of 256 μg drug/mL MHB. One mL of the first tube was added to the second tube (labeled as 64 μg/mL) to give a concentration of 128 μg drug/mL MHB. One mL of the second tube was transferred to the third tube (labeled as 32 μg/mL) to give a concentration of 64 μg drug/mL MHB. One mL of the third tube was added to the fourth tube (labeled as 16 μg/mL) to give a concentration of 32 μg drug/mL MHB. One mL of the fourth tube was dispensed in the fifth tube (labeled as 8 μg/mL) to give a concentration of 16 μg drug/mL MHB. One mL of the fifth tube was dispensed in the sixth tube (labeled as 4 μg/mL) to give a concentration of 8 μg drug/mL MHB. One mL of the sixth tube was added to the seventh tube (labeled as 2 μg/mL) to give a concentration of 4 μg drug/mL MHB. One mL of the seventh tube was added to the eighth tube (labeled as 1 μg/mL) to give a concentration of 2 μg drug/mL MHB. One mL of the eighth tube was transferred to the ninth tube (labeled as 0.5 μg/mL) to give a concentration of 1 μg drug/mL MHB. One mL of the ninth tube was transferred to the tenth tube (labeled as 0.25 μg/mL) to give a concentration of 0.5 μg drug/mL MHB. The contents were mixed thoroughly by pipetting up and down three times. One mL of the content of the tenth tube was discarded.
(§7) The inoculum suspensions (at 1-2×10^8 CFU/mL) were diluted 1:100 in MHB to obtain 1×10^6 CFU/mL. One mL of the diluted inoculum suspension (1×10^6 CFU/mL) was transferred to each tube except tube 12.
(§8) All inoculated tubes were incubated for 16-20 hours at 37° C. aerobically. […]

[2] = system: Acinetobacter baumannii isolates and Acinetobacter baumannii ATCC BAA 747; assay: as above; assay type: cell-based; conditions: Acinetobacter baumannii
Method: as §1, §2, §3, §4, §5, §6, §7, §8

SMILES: CC1=CC(=O)C(C(C)C)=CC1=O [Thymoquinone, 2-isopropyl-5-methylbenzo-1,4-quinone]
- MIC [1]: 64 µg/mL (≈ 390 µM)
- MIC ([2]; BAA747, A. baumannii ATCC BAA 747 (standard sensitive strain), read-out: MIC): 32 µg/mL (≈ 195 µM)
- MIC ([2]; BAA747, isolate AB1, read-out: MIC): 32 µg/mL (≈ 195 µM)
- MIC ([2]; BAA747, isolate AB2, read-out: MIC): 32 µg/mL (≈ 195 µM)
- MIC ([2]; BAA747, isolate AB3, read-out: MIC): 32 µg/mL (≈ 195 µM)
- MIC ([2]; BAA747, isolate AB4, read-out: MIC): 32 µg/mL (≈ 195 µM)
- MIC ([2]; BAA747, isolate AB5, read-out: MIC): 32 µg/mL (≈ 195 µM)
- MIC ([2]; BAA747, isolate AB6, read-out: MIC): 64 µg/mL (≈ 390 µM)
- MIC ([2]; BAA747, isolate AB7, read-out: MIC): 32 µg/mL (≈ 195 µM)
- MIC ([2]; BAA747, isolate AB8, read-out: MIC): 32 µg/mL (≈ 195 µM)
- MIC ([2]; BAA747, isolate AB9, read-out: MIC): 32 µg/mL (≈ 195 µM)
- MIC ([2]; BAA747, isolate AB10, read-out: MIC): 16 µg/mL (≈ 97.4 µM)
- MIC ([2]; BAA747, isolate AB11, read-out: MIC): 32 µg/mL (≈ 195 µM)
- MIC ([2]; BAA747, isolate AB12, read-out: MIC): 32 µg/mL (≈ 195 µM)
- MIC ([2]; BAA747, isolate AB13, read-out: MIC): 32 µg/mL (≈ 195 µM)
- MIC ([2]; BAA747, isolate AB14, read-out: MIC): 32 µg/mL (≈ 195 µM)
- MIC ([2]; BAA747, isolate AB15, read-out: MIC): 32 µg/mL (≈ 195 µM)
- MIC ([2]; BAA747, isolate AB16, read-out: MIC): 64 µg/mL (≈ 390 µM)
- MIC ([2]; BAA747, isolate AB17, read-out: MIC): 64 µg/mL (≈ 390 µM)
- MIC ([2]; BAA747, isolate AB18, read-out: MIC): 32 µg/mL (≈ 195 µM)
- MIC ([2]; BAA747, isolate AB19, read-out: MIC): 64 µg/mL (≈ 390 µM)
- MIC ([2]; BAA747, isolate AB20, read-out: MIC): 64 µg/mL (≈ 390 µM)
- MIC ([2]; BAA747, isolate AB21, read-out: MIC): 32 µg/mL (≈ 195 µM)
- MIC ([2]; BAA747, isolate AB22, read-out: MIC): 64 µg/mL (≈ 390 µM)
- MIC ([2]; BAA747, isolate AB23, read-out: MIC): 32 µg/mL (≈ 195 µM)
- MIC ([2]; BAA747, isolate AB24, read-out: MIC): 32 µg/mL (≈ 195 µM)
- MIC ([2]; BAA747, isolate AB25, read-out: MIC): 32 µg/mL (≈ 195 µM)
- MIC ([2]; BAA747, isolate AB26, read-out: MIC): 64 µg/mL (≈ 390 µM)
- MIC ([2]; BAA747, isolate AB27, read-out: MIC): 64 µg/mL (≈ 390 µM)
- MIC ([2]; BAA747, isolate AB28, read-out: MIC): 64 µg/mL (≈ 390 µM)
- MIC ([2]; BAA747, isolate AB29, read-out: MIC): 64 µg/mL (≈ 390 µM)
- MIC ([2]; BAA747, isolate AB30, read-out: MIC): 32 µg/mL (≈ 195 µM)
- MIC ([2]; BAA747, isolate AB31, read-out: MIC): 32 µg/mL (≈ 195 µM)
- MIC ([2]; BAA747, isolate AB32, read-out: MIC): 32 µg/mL (≈ 195 µM)
- MIC ([2]; BAA747, isolate AB33, read-out: MIC): 32 µg/mL (≈ 195 µM)

Source: US11617726B2, “Method for preventing, treating, or ameliorating a microbial infection” (priority 2018, dated 2023)
